Read-outs that look alike come from different tables or passages of the source.
Experiments:
[1] = molecular target: T1, IAV RdRp from A/PR/8/34/H1N1 strain (Influenza A virus, UniProt P03428+P03431); format: biochemical, influenza virus A/PR/8/34/H1N1
[2] = molecular target: T1, IAV RdRp from A/PR/8/34/H1N1 strain; conditions: inhibiting the transcriptional activity of viral polymerase; ref Pagadala [2019]; cited from earlier work

Work on “5′-Dimethoxytrityl-2′-tosyl-N2-isobutyryl-guanosine [Compound 7]” yielded an IC25 [1] of 250 nM and an IC50 [1] of 680 nM.

In the case of `Cc1cn([C@H]2C[C@H](N=[N+]=[N-])[C@@H](CO[P@](=O)(O)O[P@](=O)(O)OP(=O)(O)O)O2)c(=O)[nH]c1=O` [3′-azido-3′-deoxy-thymidine-5′-triphosphate], the IC50 [2] is given as 1120 nM.

In the case of `Nc1nc2c(ncn2[C@@H]2O[C@H](COP(=O)(O)OP(=O)(O)OP(=O)(O)O)[C@@H](O)[C@H]2F)c(=O)[nH]1` [Compound 12, 2′-deoxy-2′-fluoroguanosine 5′-triphosphate], the IC50 [2] is listed as 1120 nM.

Reference: publication PMC7246003 (Medicinal Chemistry Research, 2020)
